The values below come from ChEMBL document CHEMBL1201862, “PubChem BioAssay data set” (2004).

Among the test systems are OVCAR-3; M14; PC-3; OVCAR-5; A498; SNB-75; OVCAR-4; KM12; CCRF-CEM; MCF7; UACC-62; NCI-H522; U-251; T47D; HL-60; COLO 205; BT-549; SNB-19; MOLT-4.
Experiment in all cases: NCI anticancer screen, dose series, 48 h

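A five-concentration, 48-hour dose response in 96-well plates underlies each endpoint, interpolated linearly between surrounding concentrations. Abbreviation: GI50, concentration required for 50% inhibition of growth.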 Activity calls are given as the source filed them. Cut-off read from the data, not from the text of the source: active = GI50 up to about 1.1 µM and inactive = higher. Some results are limits rather than exact numbers.

For the compound `CC(=O)Nc1c(C)cc(OCC(=O)O)cc1C`, the GI50 in the test on OVCAR-3, in the test with M14, with PC-3, in the test with OVCAR-5, in the test with A498 and in the test with SNB-75 was > 100 µM (inactive) in each case. Further, the GI50 in the test with OVCAR-4, in the test with KM12, in the test with CCRF-CEM, in the test on MCF7, in the test with UACC-62 and with NCI-H522 was > 100 µM (inactive) each time. The GI50 in the test on U-251, in the test with T47D, in the test with HL-60, with COLO 205, in the test with BT-549 and in the test on SNB-19 was > 100 µM (inactive) each time.

With `COc1cc2c(cc1OC)-c1cc3ccccc3c(=O)n1CCC2`, the GI50 is 15.9 µM (inactive) in the test with OVCAR-3; 14.8 µM (inactive) in the test with M14; 8.51 µM (inactive) in the test with PC-3; 45.7 µM (inactive) in the test with OVCAR-5; 6.62 µM (inactive) in the test on A498; 19.1 µM (inactive) with SNB-75. The GI50 in the test on OVCAR-4 was 24.6 µM (inactive); with KM12 it was 8.47 µM (inactive); with CCRF-CEM it was 6.73 µM (inactive); with MCF7, 7.71 µM (inactive); in the test on UACC-62, 11.4 µM (inactive); in the test with MOLT-4, 1.89 µM (inactive). For the same compound, the GI50 in the test on NCI-H522 is 9.25 µM (inactive); in the test on U-251, 6.49 µM (inactive); in the test on T47D, 17.9 µM (inactive); in the test on HL-60 it was 2.58 µM (inactive); with COLO 205, 8.47 µM (inactive); in the test on BT-549 it was 13.1 µM (inactive). The GI50 in the test on SNB-19 is 18 µM (inactive).

Take `C=C(Br)C/N=C/N(C)C`: the GI50 in the test with OVCAR-3, in the test on M14, in the test with PC-3, with OVCAR-5, with A498 and in the test on SNB-75 was > 100 µM (inactive) throughout. Further, the GI50 in the test on OVCAR-4, with CCRF-CEM, in the test on MCF7, with UACC-62, in the test on MOLT-4 and in the test with NCI-H522 was > 100 µM (inactive) each time. For the same compound, the GI50 with U-251, in the test on T47D, in the test on HL-60, with COLO 205, in the test with BT-549 and in the test with SNB-19 was > 100 µM (inactive) each time.

In the case of `O=c1c2cc(-c3ccccc3)sc2nc2n1N=C(c1ccc(Cl)cc1)CS2`, the GI50 with OVCAR-3, in the test on PC-3, with OVCAR-5, in the test with A498, in the test with SNB-75 and in the test on OVCAR-4 was > 100 µM (inactive) each time. Moreover, the GI50 in the test with KM12, in the test with CCRF-CEM, in the test on MCF7, with UACC-62, with MOLT-4 and in the test with NCI-H522 was > 100 µM (inactive) throughout. The GI50 in the test on U-251 was > 100 µM (inactive); in the test with T47D, 57.5 µM (inactive); in the test with HL-60, > 100 µM (inactive); in the test on COLO 205, > 100 µM (inactive); in the test on BT-549, > 100 µM (inactive).

With `Cc1cc(C2(c3cc(C)c(O)c4ncccc34)OC(=O)c3ccccc32)c2cccnc2c1O`, the GI50 was 0.0056 µM (active) in the test on OVCAR-3; 0.0625 µM (active) in the test on M14; 0.265 µM (active) in the test on PC-3; 11.3 µM (inactive) in the test with OVCAR-5; 1.47 µM (inactive) in the test with A498; 0.069 µM (active) in the test on SNB-75. For the same compound, the GI50 is 0.067 µM (active) in the test with OVCAR-4; 0.0668 µM (active) in the test on KM12; 0.01 µM (active) with CCRF-CEM; < 0.001 µM (active) in the test with MCF7; 0.0158 µM (active) in the test on UACC-62; 0.522 µM (active) in the test with MOLT-4. For the same compound, the GI50 in the test on NCI-H522 was 0.01 µM (active); in the test with U-251, 0.0288 µM (active); in the test on T47D, 0.0382 µM (active); in the test with HL-60, 0.0247 µM (active); with COLO 205, 0.67 µM (active); in the test with BT-549 it was 0.031 µM (active). For the same compound, the GI50 with SNB-19 was 0.0174 µM (active).

Take `O=S(=O)(Nc1ccccc1S(=O)(=O)c1ccccc1)c1ccccc1`: the GI50 with OVCAR-3 was 65.6 µM (inactive); in the test with M14, > 100 µM (inactive); in the test with PC-3 it was 52.4 µM (inactive); in the test with OVCAR-5, > 100 µM (inactive); with A498, 91.8 µM (inactive); in the test with SNB-75, > 100 µM (inactive). The GI50 with OVCAR-4 was 51.3 µM (inactive); in the test on KM12, 56.8 µM (inactive); with CCRF-CEM, 42.7 µM (inactive); in the test with MCF7, > 100 µM (inactive); with UACC-62, 49 µM (inactive); in the test on MOLT-4 it was 65.8 µM (inactive). For the same compound, the GI50 was 41.2 µM (inactive) in the test with NCI-H522; 41.1 µM (inactive) with U-251; 59.3 µM (inactive) with T47D; 30.8 µM (inactive) in the test with HL-60; 38.1 µM (inactive) in the test on COLO 205; 63.1 µM (inactive) with BT-549. Moreover, the GI50 in the test with SNB-19 is > 100 µM (inactive).

In the case of `O=C1Nc2ccc(Br)cc2/C1=N/S(=O)(=O)O`, the GI50 in the test on OVCAR-3 is 40.7 µM (inactive); in the test on M14, 38.5 µM (inactive); with PC-3 it was 13.3 µM (inactive); in the test on OVCAR-5, 27.6 µM (inactive); in the test on A498 it was > 100 µM (inactive); in the test on SNB-75, 24.5 µM (inactive). Moreover, the GI50 in the test with OVCAR-4 was 19 µM (inactive); with KM12, 28.4 µM (inactive); in the test with CCRF-CEM, 6.85 µM (inactive); with MCF7 it was 17.8 µM (inactive); in the test on UACC-62, 18.7 µM (inactive); with MOLT-4 it was 22 µM (inactive). The GI50 was 31.3 µM (inactive) with NCI-H522; 13.6 µM (inactive) in the test on U-251; 29 µM (inactive) in the test with T47D; 12.9 µM (inactive) in the test on HL-60; 46.8 µM (inactive) with COLO 205; 34.8 µM (inactive) with BT-549. Further, in the test with SNB-19, the GI50 is > 100 µM (inactive).

With `COC(=O)[C@@H]1CC(C(CN)c2cn(C(=O)OC(C)(C)C)c3ccccc23)C(=O)N1C(=O)OC(C)(C)C` (stereo not given in full), the GI50 in the test on OVCAR-3 was 24.6 µM (inactive); with M14, 50.7 µM (inactive); with PC-3, 18.4 µM (inactive); in the test on OVCAR-5, 27.2 µM (inactive); with A498, 20.1 µM (inactive); in the test with SNB-75, 6.31 µM (inactive). The GI50 is 20.9 µM (inactive) in the test with OVCAR-4; 52.2 µM (inactive) in the test on KM12; 14.4 µM (inactive) in the test on CCRF-CEM; 23.8 µM (inactive) in the test with MCF7; 15.1 µM (inactive) in the test with UACC-62; 17.1 µM (inactive) with MOLT-4. For the same compound, the GI50 was 22.5 µM (inactive) in the test on NCI-H522; 38.9 µM (inactive) with U-251; 44.2 µM (inactive) in the test on T47D; 21.8 µM (inactive) in the test with HL-60; 17.3 µM (inactive) with COLO 205; 31.6 µM (inactive) in the test on BT-549. The GI50 in the test on SNB-19 was 69.3 µM (inactive).

`CC/C(Cl)=N\OC(=O)Nc1ccc(OC)c(C)c1`: the GI50 is 16.4 µM (inactive) in the test on OVCAR-3; 17.9 µM (inactive) in the test with M14; 28.8 µM (inactive) in the test on PC-3; 30.5 µM (inactive) with OVCAR-5; 26.5 µM (inactive) in the test with A498; 80 µM (inactive) in the test on SNB-75. For the same compound, the GI50 with OVCAR-4 is 16.2 µM (inactive); in the test on KM12, 23.8 µM (inactive); in the test on CCRF-CEM it was 4.93 µM (inactive); with MCF7 it was 16.7 µM (inactive); in the test on UACC-62, 15 µM (inactive); in the test with MOLT-4, 5.74 µM (inactive). In addition, the GI50 with NCI-H522 is 2.21 µM (inactive); in the test on U-251, 45.3 µM (inactive); in the test with T47D it was 13.9 µM (inactive); with HL-60, 3.5 µM (inactive); in the test on COLO 205, 15.1 µM (inactive); in the test on BT-549 it was 12.9 µM (inactive). The GI50 in the test with SNB-19 is 42.1 µM (inactive).

For the compound `CC(=O)c1ccc(Nc2c3ccccc3nc3occc23)cc1`, the GI50 in the test on OVCAR-3 was < 0.01 µM (active); in the test on M14 it was < 0.01 µM (active); in the test on PC-3 it was < 0.01 µM (active); in the test on OVCAR-5, 0.327 µM (active); in the test with A498, 2.32 µM (inactive); in the test with SNB-75 it was 0.0109 µM (active). Further, the GI50 is < 0.0246 µM (active) with OVCAR-4; < 0.01 µM (active) in the test with KM12; < 0.01 µM (active) in the test on CCRF-CEM; < 0.01 µM (active) in the test on MCF7; < 0.01 µM (active) in the test with UACC-62; < 0.01 µM (active) with MOLT-4. For the same compound, the GI50 in the test on NCI-H522 was < 0.01 µM (active); in the test on U-251, < 0.0124 µM (active); in the test on T47D, 0.011 µM (active); in the test with HL-60, < 0.01 µM (active); with COLO 205, < 0.01 µM (active); in the test with BT-549, 2.12 µM (inactive). Moreover, the GI50 in the test with SNB-19 is < 0.0168 µM (active).

Consider `CCO[C@H]1O[C@@H]2OC3(C)CCC4[C@H](C)CCC([C@H]1C)[C@]42OO3` (stereo not given in full), for which the GI50 in the test with OVCAR-3 was 15.5 µM (inactive); with M14, 53.5 µM (inactive); with PC-3 it was 0.729 µM (active); in the test on OVCAR-5, > 30.2 µM (inactive); in the test on A498, > 100 µM (inactive); in the test on SNB-75, > 74.1 µM (inactive). Also, the GI50 in the test with OVCAR-4 was 25.8 µM (inactive); with KM12 it was > 53.2 µM (inactive); with CCRF-CEM, 3.44 µM (inactive); in the test on MCF7, 19.4 µM (inactive); in the test on UACC-62, > 67.1 µM (inactive); with MOLT-4 it was 7.91 µM (inactive). The GI50 in the test with NCI-H522 is 43.5 µM (inactive); in the test with U-251 it was 42.7 µM (inactive); in the test on T47D it was 7.11 µM (inactive); in the test on HL-60 it was 0.159 µM (active); in the test on COLO 205, 2.98 µM (inactive); in the test with BT-549, > 100 µM (inactive). Besides, the GI50 in the test on SNB-19 was > 100 µM (inactive).
